We go through 1 compound from EPA's ToxValDB 9.5 (doi:10.2903/j.efsa.2010.1722).

As a reminder, the NOAEL is the highest dose or exposure tested at which no adverse effect was seen.

For data set [1], the system named is Anas platyrhynchos. The conditions noted are these: oral, mortality.
In data set [2] the test system is Aphidius matricariae. The conditions noted are these: not reported; reproduction.
Data set [3] concerns Apis mellifera. The conditions noted are these: acute, mortality.
Data set [4] concerns Bibionidae. The note with it: chronic/long-term; duration: 21 days; other.
In data set [5] the test system is Canidae. The conditions noted are these: oral, Dog Other.
Data set [6] deals with Colinus virginianus. The conditions noted are these: reproduction developmental.
Data set [7] has as its system Daphnia magna. The note with it: chronic/long-term; duration: 21 days; reproduction.
For data set [8], the system named is Lepomis macrochirus. The conditions noted are these: acute; duration: 96 hours; mortality.
Data set [9] has as its system Mus musculus. The conditions noted are these: acute; oral; mortality.
For data set [10], the system named is Oncorhynchus mykiss. The conditions noted are these: chronic/long-term; duration: 28 days; growth.
In data set [11] the test system is Rattus norvegicus.
Data set [12] concerns Tagia sp. The note with it: acute; duration: 14 days; mortality.
For data set [13], the system named is Aphidius matricariae. The data set can be described thus: LR50; higher = less toxic. The note with it: not reported; mortality.

≈ marks a conversion by molar mass, not a printed value. Bounds are passed on as bounds.

For the compound `C[C@H]1[C@H](c2ccc(Cl)cc2)SC(=O)N1C(=O)NC1CCCCC1` [Hexythiazox], the LD50 in data set [1] (acute, unspecified) was greater than 2000 mg/kg; in [3] (dermal) it was greater than 200 µg/piece; in [3] (duration: 48 hours, oral, unspecified) it was greater than 112 µg/piece; in [5] (acute, mortality) it was greater than 5000 mg/kg; in data set [9] it was greater than 5000 mg/kg; in data set [11] (acute, oral, mortality) it was greater than 5000 mg/kg. In addition, the LC50 was greater than 523 mg/kg-day in [1] (short-term, feed); 3.2 µg/mL (≈ 9.07 µM) in data set [8]; greater than 105 mg/kg in data set [12]. Besides, the LEL in data set [2] was determined as 158 g/ha. Further, the NOEC in data set [4] stood at 1.7 mg/L; in [6] it was 100 mg/kg-day; in data set [7] it was 0.0061 mg/L; in data set [10], 0.04 mg/L. Also, the NOAEL in [5] (chronic, duration: 1 years, histopathology: nonneoplastic) stood at 2.87 mg/kg-day; in data set [11] (chronic, duration: 2 years, clinical chemistry) it was 3.2 mg/kg-day. The compound further yielded an NOEL in data set [11] (chronic) of 23.5 mg/kg-day. Further, the LR50 in data set [13] is greater than 158 g/ha.
